Read-outs that look alike come from different tables or passages of the source.

The term IC50 denotes the point on the concentration scale where inhibition reaches its midpoint. As usually defined, the Ki is a dissociation constant, usually derived from enzyme kinetics or from competition with a known ligand. A low value points to a stronger hold on the target.

The target in assay [1] is T1, P2X7 (Homo sapiens (Human), UniProt Q99572). Kind of assay: P2X7 antagonism in human whole blood, IL-1β release (LPS + Bz-ATP, ELISA). The format is cell-based. The conditions noted are these: LPS 30 ng/ml + Bz-ATP 1 mM. On the procedure: (§1) P2X7 Antagonism in Human Peripheral Blood Mononuclear Cells (PBMCs) and Human Whole Blood.
T1 sequence (Q99572 whole entry): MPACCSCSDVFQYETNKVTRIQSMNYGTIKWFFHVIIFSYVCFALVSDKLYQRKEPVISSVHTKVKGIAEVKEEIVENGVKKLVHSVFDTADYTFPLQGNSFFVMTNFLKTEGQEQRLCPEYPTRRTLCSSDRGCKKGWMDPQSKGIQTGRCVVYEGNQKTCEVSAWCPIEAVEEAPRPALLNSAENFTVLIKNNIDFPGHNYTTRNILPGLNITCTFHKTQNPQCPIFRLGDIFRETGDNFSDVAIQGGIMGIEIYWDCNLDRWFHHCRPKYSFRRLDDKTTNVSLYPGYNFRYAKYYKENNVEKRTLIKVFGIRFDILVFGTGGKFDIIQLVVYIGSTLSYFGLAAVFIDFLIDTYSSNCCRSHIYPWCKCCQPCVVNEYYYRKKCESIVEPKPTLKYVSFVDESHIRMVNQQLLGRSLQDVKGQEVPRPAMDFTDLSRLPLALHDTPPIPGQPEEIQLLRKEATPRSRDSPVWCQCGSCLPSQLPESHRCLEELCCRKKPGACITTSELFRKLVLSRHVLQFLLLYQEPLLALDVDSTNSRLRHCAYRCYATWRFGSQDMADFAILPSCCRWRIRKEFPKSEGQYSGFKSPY
(§2) Human blood was collected using a blood donor program. PBMCs were isolated from blood using a Ficoll density gradient technique. Briefly, blood was laid on Ficoll solution and centrifuged at ROOM TEMPERATURE for 20 minutes at 2000 rpm. The buffy layer (between red blood cells and plasma) was carefully collected by aspiration, washed with PBS and centrifuged again at 1500 rpm for 15 minutes. The resulting cell pellet was washed and plated on 96 well-plates for experiments. For the Human Whole Blood experiments, 150 μl of human blood was plated on 96 well-plates. Lipopolysaccharide (LPS) (30 ng/ml) was added to each well and incubated for 1 hour. Test compounds were then added and incubated for 30 minutes. The P2X7 agonist, 2′(3′)-O-(4-benzoylbenzoyl) adenosine 5′-triphosphate (Bz-ATP) was then added at a final concentration of 0.5 mM (PBMC) or 1 mM (blood). Cells were incubated for an additional 1.5 hours. At that point, supernatant was collected and stored for IL-1β assay using manufacturer's protocol for enzyme-linked immunosorbant assay (ELISA). Data was expressed as percent control, where control is defined as the difference in IL-1β release in LPS+Bz-ATP samples and LPS only samples. Data was plotted as response (% control) versus concentration to generate IC50 values. […] Data are analyzed and graphed on Graphpad Prism 5. For analysis, each concentration point is averaged from triplicate values and the averaged values are plotted on Graphpad Prism. The IC50 for each compound is then uploaded into 3DX.
A general note: ELISA stands for enzyme-linked immunosorbent assay.

For the next assay, the target named is rat P2X7 (Rattus norvegicus (Rat), UniProt Q64663). Kind of assay: P2X7 antagonism in recombinant rat P2X7 cells (column headed P2X7 Rat IC50). The format is binding. On the procedure:
The in vitro affinity of the compounds of the invention for the rat and human P2X7 receptor was determined using a human peripheral blood mononuclear cells (PBMCs), a human whole blood assay, a Ca^2+ flux and radioligand binding assay in recombinant human P2X7 cells and recombinant rat P2X7 cells. […] The data represented in Tables 2 may represent a value from a single determination or when the experiment was run more than once, the data represents the average from between 2-12 runs.
P2X7 Antagonism in Recombinant Human P2X7 Cells or Recombinant Rat P2X7 Cells: […]

In assay [2] the target is T1, P2X7. Description: P2X7 antagonism in human peripheral blood mononuclear cells (PBMCs), IL-1β release (LPS + Bz-ATP, ELISA). In kind it is cell-based. The conditions noted are these: P2X7, 10 μM test compound, LPS 30 ng/ml + Bz-ATP 0.5 mM, read-out: PBMC @10 μM (% control). On the procedure:
as §1, §2

Assay [3] has as its target T1, P2X7. Description: Radioligand binding ([3H]A-804598) to membranes of human P2X7-1321N1 cells. The conditions noted are these: human P2X7-1321N1 membranes, tracer tritiated A-804598, 1 hour at 4° C. As for the experimental part:
P2X7 Antagonism in Recombinant Human P2X7 Cells or Recombinant Rat P2X7 Cells:
human or rat P2X7-1321N1 cells were collected and frozen @ −80° C. On the day of the experiment, cell membrane preparations were made according to standard published methods. […] The compound can be prepared as described in the literature. […] The assay was terminated by filtration (GF/B filters pre-soaked with 0.3% PEI) and washed with washing buffer (Tris-HCl 50 mM). The IC50 generated in the binding assay was corrected for tracer concentration and affinity of the tracer to derive at the affinity (Ki) of the test compounds. The data are presented in Table 2 under the headings: P2X7 human Ki (μM) and P2X7 rat Ki (μM). Data are analyzed and graphed on Graphpad Prism 5. For analysis, each concentration point is averaged from triplicate values and the averaged values are plotted on Graphpad Prism.

Where [4] appears, read: read-out: Human Whole Blood IC50.

rat P2X7, sequence (Q64663 whole entry): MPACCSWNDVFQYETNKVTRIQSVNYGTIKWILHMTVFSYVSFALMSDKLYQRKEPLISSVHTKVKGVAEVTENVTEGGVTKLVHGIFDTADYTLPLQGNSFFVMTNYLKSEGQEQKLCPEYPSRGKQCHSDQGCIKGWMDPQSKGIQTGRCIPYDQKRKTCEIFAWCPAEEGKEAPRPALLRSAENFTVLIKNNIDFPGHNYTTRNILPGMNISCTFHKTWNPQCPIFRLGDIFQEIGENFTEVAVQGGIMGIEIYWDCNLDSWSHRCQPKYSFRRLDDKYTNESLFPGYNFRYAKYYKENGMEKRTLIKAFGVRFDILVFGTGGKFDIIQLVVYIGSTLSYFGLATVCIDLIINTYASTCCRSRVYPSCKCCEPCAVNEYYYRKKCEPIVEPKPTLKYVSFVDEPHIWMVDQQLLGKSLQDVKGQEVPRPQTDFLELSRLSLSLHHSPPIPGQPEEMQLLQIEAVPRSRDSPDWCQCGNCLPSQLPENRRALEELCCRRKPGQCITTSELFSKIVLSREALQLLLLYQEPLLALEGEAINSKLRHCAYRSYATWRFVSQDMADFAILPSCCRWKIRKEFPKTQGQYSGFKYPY

On to `Cc1nc(-c2ccccn2)c2c(n1)[C@H]1CCC[C@@H](C2)N1C(=O)c1ccc(Cl)c(F)c1Cl` [Example 64, (2,4-dichloro-3-fluorophenyl)((6S,10R)-2-methyl-4-(pyridin-2-yl)-5,6,7,8,9,10-hexahydro-6,10-epiminocycloocta[d]pyrimidin-11-yl)methanone], for which the IC50 at P2X7 [1] (Human Whole Blood IC50 (μM)) was found to be 0.037 µM; at rat P2X7, 376 nM. Further, the remaining activity at 10 µM at P2X7 [2] is -2.8%. The molecule also gave a Ki on P2X7 [3] of 20 nM.

Consider `Cc1nc(-c2ccn[nH]2)c2c(n1)[C@H]1CCC[C@@H](C2)N1C(=O)c1ccc(Cl)cc1F` [Example 28, (4-chloro-2-fluorophenyl)((6S,10R)-2-methyl-4-(1H-pyrazol-5-yl)-5,6,7,8,9,10-hexahydro-6,10-epiminocycloocta[d]pyrimidin-11-yl)methanone], for which the IC50 on P2X7 [1] (setting [4]) amounted to 0.423 µM; on rat P2X7, 7940 nM. For the same molecule, on P2X7 [2], the remaining activity at 10 µM was -25.1%. On P2X7 [3], affinity was put at a Ki of 126 nM.

Consider `Cc1nc(-c2ncccn2)c2c(n1)[C@H]1CCC[C@@H](C2)N1C(=O)c1cccc(Cl)c1Cl` [Example 45, (2,3-dichlorophenyl)((6S,10R)-2-methyl-4-(pyrimidin-2-yl)-5,6,7,8,9,10-hexahydro-6,10-epiminocycloocta[d]pyrimidin-11-yl)methanone], for which the values for the IC50 at P2X7 [1] (Human Whole Blood IC50 (μM)) and at rat P2X7 were 0.064 µM and 128 nM, respectively. Besides, at P2X7 [2], the remaining activity at 10 µM is -14.2%. In addition, the Ki at P2X7 [3] was 25.1 nM.

With `Cc1nc(-c2cnccn2)c2c(n1)[C@H]1CCC[C@@H](C2)N1C(=O)c1cccc(C(F)(F)F)c1C` [Example 50, (2-methyl-3-(trifluoromethyl)phenyl)((6S,10R)-2-methyl-4-(pyrazin-2-yl)-5,6,7,8,9,10-hexahydro-6,10-epiminocycloocta[d]pyrimidin-11-yl)methanone], the IC50 at P2X7 [1] (setting [4]) was found to be 0.158 µM; on rat P2X7, 67.8 nM. Besides, on P2X7 [2], the remaining activity at 10 µM is -2.2%. Besides, at P2X7 [3], the affinity corresponds to a Ki of 93.3 nM.

Turning to `Cc1nc(-c2ccn[nH]2)c2c(n1)C1CCCC(C2)N1C(=O)c1cccc(Cl)c1Cl` (stereo not drawn) [Example 1, (2,3-dichlorophenyl)(2-methyl-4-(1H-pyrazol-5-yl)-5,6,7,8,9,10-hexahydro-6,10-epiminocycloocta[d]pyrimidin-11-yl)methanone], the IC50 on P2X7 [1] (Human Whole Blood IC50 (μM)) turned out to be 0.027 µM; on rat P2X7 it was 101 nM. On P2X7 [2], the remaining activity at 10 µM turned out to be 3.3%. The molecule further gave a Ki at P2X7 [3] of 31.6 nM.

Consider `Cc1nc(-c2ccccn2)c2c(n1)[C@H]1CCC[C@@H](C2)N1C(=O)c1cccc(Cl)c1Cl` [Example 65, (2,3-dichlorophenyl)((6S,10R)-2-methyl-4-(pyridin-2-yl)-5,6,7,8,9,10-hexahydro-6,10-epiminocycloocta[d]pyrimidin-11-yl)methanone], for which the IC50 was 0.042 µM on P2X7 [1] (Human Whole Blood IC50 (μM)) and 184 nM on rat P2X7. On P2X7 [2], the remaining activity at 10 µM was 0.1%. In addition, affinity at P2X7 [3] was put at a Ki of 49 nM.

Consider `Cc1nc(-c2ccn[nH]2)c2c(n1)[C@H]1CCC[C@@H](C2)N1C(=O)c1ccc(F)c(Cl)c1Cl` [Example 25, (2,3-dichloro-4-fluorophenyl)((6S,10R)-2-methyl-4-(1H-pyrazol-5-yl)-5,6,7,8,9,10-hexahydro-6,10-epiminocycloocta[d]pyrimidin-11-yl)methanone], for which the IC50 at P2X7 [1] (Human Whole Blood IC50 (μM)) amounted to 0.025 µM; on rat P2X7 it was 18.7 nM. At P2X7 [2], the remaining activity at 10 µM was -10.2%. Further, the affinity on P2X7 [3], expressed as Ki, was 20 nM.

As for `Cc1nc(-c2ncccn2)c2c(n1)[C@H]1CCC[C@@H](C2)N1C(=O)c1ccnc(C(F)(F)F)c1Cl` [Example 42, (3-chloro-2-(trifluoromethyl)pyridin-4-yl)((6S,10R)-2-methyl-4-(pyrimidin-2-yl)-5,6,7,8,9,10-hexahydro-6,10-epiminocycloocta[d]pyrimidin-11-yl)methanone], the IC50 on P2X7 [1] (setting [4]) worked out at 0.107 µM; at rat P2X7 it was 157 nM. The remaining activity at 10 µM on P2X7 [2] is -16.1%. On P2X7 [3], this molecule displayed a Ki of 126 nM.

With `Cc1nc(-c2ccn[nH]2)c2c(n1)[C@H]1CCC[C@@H](C2)N1C(=O)c1ccc(F)cc1Cl` [Example 22, (2-chloro-4-fluorophenyl)((6S,10R)-2-methyl-4-(1H-pyrazol-5-yl)-5,6,7,8,9,10-hexahydro-6,10-epiminocycloocta[d]pyrimidin-11-yl)methanone], the IC50 at P2X7 [1] (setting [4]) is 0.286 µM; at rat P2X7, > 10000 nM. In addition, the remaining activity at 10 µM on P2X7 [2] was determined as 26.8%. In addition, the affinity at P2X7 [3], expressed as Ki, was 316 nM.

In the case of `Cc1nc(-c2ncccn2)c2c(n1)[C@H]1CCC[C@@H](C2)N1C(=O)c1ccc(Cl)c(F)c1Cl` [Example 44, (2,4-dichloro-3-fluorophenyl)((6S,10R)-2-methyl-4-(pyrimidin-2-yl)-5,6,7,8,9,10-hexahydro-6,10-epiminocycloocta[d]pyrimidin-11-yl)methanone], the IC50 worked out at 0.156 µM on P2X7 [1] (setting [4]) and 251 nM on rat P2X7. Further, the remaining activity at 10 µM on P2X7 [2] was -11.6%. On P2X7 [3], this molecule registered a Ki of 50.1 nM.

Consider `Cc1nc(-c2ccccn2)c2c(n1)[C@H]1CCC[C@@H](C2)N1C(=O)c1cccc(C(F)(F)F)c1C` [Example 62, (2-methyl-3-(trifluoromethyl)phenyl)((6S,10R)-2-methyl-4-(pyridin-2-yl)-5,6,7,8,9,10-hexahydro-6,10-epiminocycloocta[d]pyrimidin-11-yl)methanone], for which the IC50 was 0.058 µM at P2X7 [1] (Human Whole Blood IC50 (μM)) and 51.3 nM at rat P2X7. For the same molecule, the remaining activity at 10 µM at P2X7 [2] was -1.4%. Besides, the Ki on P2X7 [3] came out at 63.1 nM.

Turning to `Cc1nc(-c2ccnn2C)c2c(n1)[C@H]1CCC[C@@H](C2)N1C(=O)c1ccc(Cl)c(F)c1Cl` [Example 58, (2,4-dichloro-3-fluorophenyl)((6S,10R)-2-methyl-4-(1-methyl-1H-pyrazol-5-yl)-5,6,7,8,9,10-hexahydro-6,10-epiminocycloocta[d]pyrimidin-11-yl)methanone], the values for the IC50 at P2X7 [1] (setting [4]) and at rat P2X7 were 0.13 µM and 805 nM, respectively. In addition, on P2X7 [2], the remaining activity at 10 µM was -3.3%. On P2X7 [3], this molecule came in with a Ki of 93.3 nM.

As to `Cc1nc(-c2ccn[nH]2)c2c(n1)[C@H]1CCC[C@@H](C2)N1C(=O)c1ccc(Cl)c(F)c1Cl` [Example 23, (2,4-dichloro-3-fluorophenyl)((6S,10R)-2-methyl-4-(1H-pyrazol-5-yl)-5,6,7,8,9,10-hexahydro-6,10-epiminocycloocta[d]pyrimidin-11-yl)methanone], the half-inhibitory concentration (IC50) at P2X7 [1] (Human Whole Blood IC50 (μM)) worked out at 0.018 µM. The remaining activity at 10 µM on P2X7 [2] was -24.7%. At P2X7 [3], this molecule returned a Ki of 31.6 nM.

Take `Cc1nc(-c2ccn[nH]2)c2c(n1)[C@@H]1CCC[C@H](C2)N1C(=O)c1ccc(Cl)c(F)c1Cl` [Example 10, (2,4-dichloro-3-fluorophenyl)((6R,10S)-2-methyl-4-(1H-pyrazol-5-yl)-5,6,7,8,9,10-hexahydro-6,10-epiminocycloocta[d]pyrimidin-11-yl)methanone]: the IC50 on P2X7 [1] (Human Whole Blood IC50 (μM)) was found to be 0.459 µM. At P2X7 [2], the remaining activity at 10 µM worked out at 22.4%. The same molecule had a Ki on P2X7 [3] of 631 nM.

`Cc1nc(-c2ccn[nH]2)c2c(n1)[C@H]1CCC[C@@H](C2)N1C(=O)c1ccc(Cl)cc1Cl` [Example 20, (2,4-dichlorophenyl)((6S,10R)-2-methyl-4-(1H-pyrazol-5-yl)-5,6,7,8,9,10-hexahydro-6,10-epiminocycloocta[d]pyrimidin-11-yl)methanone]: the IC50 at P2X7 [1] (Human Whole Blood IC50 (μM)) turned out to be 0.221 µM. For the same molecule, the remaining activity at 10 µM on P2X7 [2] is -9.9%. The same molecule came in with a Ki on P2X7 [3] of 120 nM.

These data come from US10150766B2, “P2X7 modulators” (Jansssen Pharmaceutica NV, priority 2014, dated 2018).
